Converted amounts (≈) assume the structure as drawn. Read-outs that look alike come from different tables or passages of the source.
Tests used:
MDRAB = experiment: MIC determination, microdilution broth method; format: cell-based, Acinetobacter baumannii
Procedure: (§1) Determination methods of a Minimal Inhibitory Concentration (MIC) and a Minimum Bactericidal Concentration (MBC) of a test product: the MIC and the MBC of the Pithecellobium clypearia Benth water or ethanol extract to the MDRAB are determined by a microdilution broth method. And it is operated by referring to the microdilution broth method recommended by National Committee for Clinical Laboratory Standards (NCCLS).

ATCC27853 = experiment: MIC determination, control strain; format: cell-based
Procedure: Determination methods of a Minimal Inhibitory Concentration (MIC) and a Minimum Bactericidal Concentration (MBC) of a test product: the MIC and the MBC of the Pithecellobium clypearia Benth water or ethanol extract to the MDRAB are determined by a microdilution broth method.

MDRPA = experiment: MIC determination, microdilution broth method;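 further: broth microdilution per NCCLS recommendations, testing Pithecellobium clypearia water or ethanol extracts against multidrug-resistant Pseudomonas aeruginosa, with MIC50 and MIC90 derived statistically from individual MICs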
Procedure: as §1
By determining the MIC and the MBC of the drug and making statistics of the data to obtain MIC50, MIC90, MBC50 and MBC90, the effect of the MDRA resistance of the drug is evaluated.
Test method: the MDRPA (serial No.: P1-P20) strains are tested and are evaluated with reference to the method in the first embodiment.

[1] = single use, 20 MDRABs, EA=10% ethanol extract
[2] = single use, 20 MDRABs, EA=water extract
[3] = single use, 20 MDRABs, section of the 95% ethanol extract
[4] = 20 MDRPAs, EA = 60% ethanol extract
[5] = 20 MDRPAs, EA = 95% ethanol extract
[6] = MDRPAs P1-P20, single use, EA=P. clypearia 10% ethanol extract
[7] = MDRPAs P1-P20, single use, EA=P. clypearia water extract
[8] = single use, 20 MDRPAs, section of the 10% ethanol extract
[9] = single use, 20 MDRPAs, section of the 60% ethanol extract
[10] = single use, 20 MDRPAs, section of the 95% ethanol extract

## C[C@@H](O)[C@H]1C(=O)N2C(C(=O)O)=C(SCCN=CN)C[C@H]12 [IMP, imipenem]
MDRAB; MDRABs, EA=60% ethanol extract
  MIC50: 32 mg/L (≈ 107 µM)
  MIC90: 32 mg/L (≈ 107 µM)
  MIC Range: 1 to 32 mg/L
MDRAB; MDRABs, EA=95% ethanol extract
  MIC50: 32 mg/L (≈ 107 µM)
  MIC90: 32 mg/L (≈ 107 µM)
  MIC Range: 1 to 32 mg/L
MDRAB; [1]
  MIC50: 32 mg/L (≈ 107 µM)
  MIC90: 32 mg/L (≈ 107 µM)
  MIC Range: 1 to 32 mg/L
MDRAB; [2]
  MIC50: 32 mg/L (≈ 107 µM)
  MIC90: 32 mg/L (≈ 107 µM)
  MIC Range: 1 to 32 mg/L
MDRAB; [3]
  MIC50: 32 mg/L (≈ 107 µM)
  MIC90: 32 mg/L (≈ 107 µM)
ATCC27853; EA=10% ethanol extract, read-out: MIC
  MIC: 1 mg/L (≈ 3.34 µM)
ATCC27853; EA=60% ethanol extract, read-out: MIC
  MIC: 1 mg/L (≈ 3.34 µM)
ATCC27853; EA=95% ethanol extract, read-out: MIC
  MIC: 1 mg/L (≈ 3.34 µM)
ATCC27853; EA=P. clypearia 10% ethanol extract, read-out: MIC (single use)
  MIC: 4 mg/L (≈ 13.4 µM)
ATCC27853; EA=P. clypearia water extract, read-out: MIC (single use)
  MIC: 4 mg/L (≈ 13.4 µM)
ATCC27853; EA=water extract, read-out: MIC
  MIC: 1 mg/L (≈ 3.34 µM)
ATCC27853; single use, EA = 60% ethanol extract, read-out: MIC
  MIC: 4 mg/L (≈ 13.4 µM)
ATCC27853; single use, EA = 95% ethanol extract, read-out: MIC
  MIC: 4 mg/L (≈ 13.4 µM)
MDRPA; [4]
  MIC50: 32 mg/L (≈ 107 µM)
  MIC90: 64 mg/L (≈ 214 µM)
  MIC Range: 4 to 64 mg/L
MDRPA; [5]
  MIC50: 32 mg/L (≈ 107 µM)
  MIC90: 64 mg/L (≈ 214 µM)
  MIC Range: 4 to 64 mg/L
MDRPA; [6]
  MIC50: 32 mg/L (≈ 107 µM)
  MIC90: 64 mg/L (≈ 214 µM)
  MIC Range: 4 to 64 mg/L
MDRPA; [7]
  MIC50: 32 mg/L (≈ 107 µM)
  MIC90: 64 mg/L (≈ 214 µM)
  MIC Range: 4 to 64 mg/L
MDRPA; Pseudomonas aeruginosa
  MIC50: 32 mg/L (≈ 107 µM)
  MIC90: 64 mg/L (≈ 214 µM)
MDRPA; Pseudomonas aeruginosa, read-out: MIC (single use), strain P1, EA=P. clypearia 10% ethanol extract
  MIC: 32 mg/L (≈ 107 µM)
MDRPA; Pseudomonas aeruginosa, read-out: MIC (single use), strain P1, EA=P. clypearia water extract
  MIC: 32 mg/L (≈ 107 µM)
MDRPA; Pseudomonas aeruginosa, read-out: MIC (single use), strain P2, EA=P. clypearia 10% ethanol extract
  MIC: 64 mg/L (≈ 214 µM)
MDRPA; Pseudomonas aeruginosa, read-out: MIC (single use), strain P2, EA=P. clypearia water extract
  MIC: 64 mg/L (≈ 214 µM)
MDRPA; Pseudomonas aeruginosa, read-out: MIC (single use), strain P3, EA=P. clypearia 10% ethanol extract
  MIC: 64 mg/L (≈ 214 µM)
MDRPA; Pseudomonas aeruginosa, read-out: MIC (single use), strain P3, EA=P. clypearia water extract
  MIC: 64 mg/L (≈ 214 µM)
MDRPA; Pseudomonas aeruginosa, read-out: MIC (single use), strain P4, EA=P. clypearia 10% ethanol extract
  MIC: 32 mg/L (≈ 107 µM)
MDRPA; Pseudomonas aeruginosa, read-out: MIC (single use), strain P4, EA=P. clypearia water extract
  MIC: 32 mg/L (≈ 107 µM)
MDRPA; Pseudomonas aeruginosa, read-out: MIC (single use), strain P5, EA=P. clypearia 10% ethanol extract
  MIC: 64 mg/L (≈ 214 µM)
MDRPA; Pseudomonas aeruginosa, read-out: MIC (single use), strain P5, EA=P. clypearia water extract
  MIC: 64 mg/L (≈ 214 µM)
MDRPA; Pseudomonas aeruginosa, read-out: MIC (single use), strain P6, EA=P. clypearia 10% ethanol extract
  MIC: 32 mg/L (≈ 107 µM)
MDRPA; Pseudomonas aeruginosa, read-out: MIC (single use), strain P6, EA=P. clypearia water extract
  MIC: 32 mg/L (≈ 107 µM)
MDRPA; Pseudomonas aeruginosa, read-out: MIC (single use), strain P7, EA=P. clypearia 10% ethanol extract
  MIC: 32 mg/L (≈ 107 µM)
MDRPA; Pseudomonas aeruginosa, read-out: MIC (single use), strain P7, EA=P. clypearia water extract
  MIC: 32 mg/L (≈ 107 µM)
MDRPA; Pseudomonas aeruginosa, read-out: MIC (single use), strain P8, EA=P. clypearia 10% ethanol extract
  MIC: 64 mg/L (≈ 214 µM)
MDRPA; Pseudomonas aeruginosa, read-out: MIC (single use), strain P8, EA=P. clypearia water extract
  MIC: 64 mg/L (≈ 214 µM)
MDRPA; Pseudomonas aeruginosa, read-out: MIC (single use), strain P9, EA=P. clypearia 10% ethanol extract
  MIC: 32 mg/L (≈ 107 µM)
MDRPA; Pseudomonas aeruginosa, read-out: MIC (single use), strain P9, EA=P. clypearia water extract
  MIC: 32 mg/L (≈ 107 µM)
MDRPA; Pseudomonas aeruginosa, read-out: MIC (single use), strain P10, EA=P. clypearia 10% ethanol extract
  MIC: 64 mg/L (≈ 214 µM)
MDRPA; Pseudomonas aeruginosa, read-out: MIC (single use), strain P10, EA=P. clypearia water extract
  MIC: 64 mg/L (≈ 214 µM)
MDRPA; Pseudomonas aeruginosa, read-out: MIC (single use), strain P11, EA=P. clypearia 10% ethanol extract
  MIC: 8 mg/L (≈ 26.7 µM)
MDRPA; Pseudomonas aeruginosa, read-out: MIC (single use), strain P11, EA=P. clypearia water extract
  MIC: 8 mg/L (≈ 26.7 µM)
MDRPA; Pseudomonas aeruginosa, read-out: MIC (single use), strain P12, EA=P. clypearia 10% ethanol extract
  MIC: 32 mg/L (≈ 107 µM)
MDRPA; Pseudomonas aeruginosa, read-out: MIC (single use), strain P12, EA=P. clypearia water extract
  MIC: 32 mg/L (≈ 107 µM)
MDRPA; Pseudomonas aeruginosa, read-out: MIC (single use), strain P13, EA=P. clypearia 10% ethanol extract
  MIC: 8 mg/L (≈ 26.7 µM)
MDRPA; Pseudomonas aeruginosa, read-out: MIC (single use), strain P13, EA=P. clypearia water extract
  MIC: 8 mg/L (≈ 26.7 µM)
MDRPA; Pseudomonas aeruginosa, read-out: MIC (single use), strain P14, EA=P. clypearia 10% ethanol extract
  MIC: 32 mg/L (≈ 107 µM)
MDRPA; Pseudomonas aeruginosa, read-out: MIC (single use), strain P14, EA=P. clypearia water extract
  MIC: 32 mg/L (≈ 107 µM)
MDRPA; Pseudomonas aeruginosa, read-out: MIC (single use), strain P15, EA=P. clypearia 10% ethanol extract
  MIC: 32 mg/L (≈ 107 µM)
MDRPA; Pseudomonas aeruginosa, read-out: MIC (single use), strain P15, EA=P. clypearia water extract
  MIC: 32 mg/L (≈ 107 µM)
MDRPA; Pseudomonas aeruginosa, read-out: MIC (single use), strain P16, EA=P. clypearia 10% ethanol extract
  MIC: 16 mg/L (≈ 53.4 µM)
MDRPA; Pseudomonas aeruginosa, read-out: MIC (single use), strain P16, EA=P. clypearia water extract
  MIC: 16 mg/L (≈ 53.4 µM)
MDRPA; Pseudomonas aeruginosa, read-out: MIC (single use), strain P17, EA=P. clypearia 10% ethanol extract
  MIC: 16 mg/L (≈ 53.4 µM)
MDRPA; Pseudomonas aeruginosa, read-out: MIC (single use), strain P17, EA=P. clypearia water extract
  MIC: 16 mg/L (≈ 53.4 µM)
MDRPA; Pseudomonas aeruginosa, read-out: MIC (single use), strain P18, EA=P. clypearia 10% ethanol extract
  MIC: 32 mg/L (≈ 107 µM)
MDRPA; Pseudomonas aeruginosa, read-out: MIC (single use), strain P18, EA=P. clypearia water extract
  MIC: 32 mg/L (≈ 107 µM)
MDRPA; Pseudomonas aeruginosa, read-out: MIC (single use), strain P19, EA=P. clypearia 10% ethanol extract
  MIC: 64 mg/L (≈ 214 µM)
MDRPA; Pseudomonas aeruginosa, read-out: MIC (single use), strain P19, EA=P. clypearia water extract
  MIC: 64 mg/L (≈ 214 µM)
MDRPA; Pseudomonas aeruginosa, read-out: MIC (single use), strain P20, EA=P. clypearia 10% ethanol extract
  MIC: 4 mg/L (≈ 13.4 µM)
MDRPA; Pseudomonas aeruginosa, read-out: MIC (single use), strain P20, EA=P. clypearia water extract
  MIC: 4 mg/L (≈ 13.4 µM)
MDRPA; [8]
  MIC50: 32 mg/L (≈ 107 µM)
  MIC90: 64 mg/L (≈ 214 µM)
MDRPA; [9]
  MIC50: 32 mg/L (≈ 107 µM)
  MIC90: 64 mg/L (≈ 214 µM)
MDRPA; [10]
  MIC50: 32 mg/L (≈ 107 µM)
  MIC90: 64 mg/L (≈ 214 µM)

Reference: patent publication US11793849B2, “Method of Chinese herbal medicine extract used for treating multiple diseases caused by drug resistant bacteria infection” (priority 2016, dated 2023)
